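Cultured in 96-well plates, cells were exposed to test compound for 48 hours across five concentrations. GI50 = concentration required for 50% inhibition of growth.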 Calls of active or inactive are those of the source. Rule as the data show it: active = GI50 up to about 1.1 µM and inactive = higher.
Columns and labels:
Assay in all cases: NCI anticancer screen, dose series, 48 h
SR = test system: SR
Hs-578T = test system: Hs-578T
MDA-N = test system: MDA-N
HOP-62 = test system: HOP-62
SK-OV-3 = test system: SK-OV-3
NCI/ADR-RES = test system: NCI/ADR-RES
SF-295 = test system: SF-295
ACHN = test system: ACHN
NCI-H460 = test system: NCI-H460
UACC-62 = test system: UACC-62
OVCAR-8 = test system: OVCAR-8
SNB-19 = test system: SNB-19
RPMI-8226 = test system: RPMI-8226
K562 = test system: K562
TK-10 = test system: TK-10
CAKI-1 = test system: CAKI-1
HCC 2998 = test system: HCC 2998
CCRF-CEM = test system: CCRF-CEM
HL-60 = test system: HL-60
MDA-MB-435 = test system: MDA-MB-435

Row | SMILES | GI50 (SR) | GI50 (Hs-578T) | GI50 (MDA-N) | GI50 (HOP-62) | GI50 (SK-OV-3) | GI50 (NCI/ADR-RES) | GI50 (SF-295) | GI50 (ACHN) | GI50 (NCI-H460) | GI50 (UACC-62) | GI50 (OVCAR-8) | GI50 (SNB-19) | GI50 (RPMI-8226) | GI50 (K562) | GI50 (TK-10) | GI50 (CAKI-1) | GI50 (HCC 2998) | GI50 (CCRF-CEM) | GI50 (HL-60) | GI50 (MDA-MB-435)
1 | CC(C)(C)[Si](C)(C)OCC1OC(n2ccc(N)nc2=O)C(O[Si](C)(C)C(C)(C)C)C1O[Si](C)(C)C(C)(C)C (stereo unspecified) | 2.73 µM (inactive) | 2.55 µM (inactive) | 3.89 µM (inactive) | 2.06 µM (inactive) | 2.75 µM (inactive) | 15.8 µM (inactive) | 1.74 µM (inactive) | 1.82 µM (inactive) | 1.9 µM (inactive) | 1.94 µM (inactive) | 2.33 µM (inactive) | 3.24 µM (inactive) |  |  |  |  |  |  |  | 
2 | COc1ccc2c(=O)c(-c3cc(OC)c(OC)cc3OC)coc2c1 | 1.27 µM (inactive) | 1.98 µM (inactive) | 0.262 µM (active) | 3.72 µM (inactive) | 3.02 µM (inactive) |  | 1.66 µM (inactive) | > 82.8 µM (inactive) | 2.48 µM (inactive) | 1.97 µM (inactive) | 9.73 µM (inactive) | 15.3 µM (inactive) | 2.35 µM (inactive) | 1.11 µM (active) | 31.5 µM (inactive) | 3.01 µM (inactive) | 2.94 µM (inactive) | 1.56 µM (inactive) | 0.735 µM (active) | 
3 | CCCCCCCCC[C@@H]1C[C@@H]2CCC3C(C(=O)OCCCCNC(=O)OCc4ccccc4)=C(C)N=C(N1)N32 (stereo partly specified) |  | 2.51 µM (inactive) |  | 3.75 µM (inactive) | 3.2 µM (inactive) | 2.62 µM (inactive) | 3.44 µM (inactive) | 3.15 µM (inactive) | 3.22 µM (inactive) | 3.44 µM (inactive) | 2.58 µM (inactive) | 6.18 µM (inactive) | 2.13 µM (inactive) | 1.77 µM (inactive) | 4.5 µM (inactive) | 3.62 µM (inactive) | 3.06 µM (inactive) | 2.52 µM (inactive) | 1.98 µM (inactive) | 2.78 µM (inactive)
4 | CCOC(=O)c1c[nH]c(C(=O)OCC)c1-c1cccn1-c1ccccc1 |  | 9.64 µM (inactive) | 31.7 µM (inactive) | 18.2 µM (inactive) | 28.4 µM (inactive) | 19.1 µM (inactive) | 19.3 µM (inactive) | 26.2 µM (inactive) | 23 µM (inactive) | 17.4 µM (inactive) | 19.2 µM (inactive) | 31.7 µM (inactive) | 14.2 µM (inactive) | 15.4 µM (inactive) | 36 µM (inactive) | 20.9 µM (inactive) |  | 17.9 µM (inactive) | 18.4 µM (inactive) | 27.5 µM (inactive)
5 | C/C(=C\CO)CC/C=C(\C)CNc1ccccc1 | 34.3 µM (inactive) | 29.8 µM (inactive) |  | > 100 µM (inactive) | > 100 µM (inactive) | 40.4 µM (inactive) | 38.5 µM (inactive) | > 100 µM (inactive) | > 100 µM (inactive) | 36.1 µM (inactive) | 82.8 µM (inactive) | 62.5 µM (inactive) |  | 28.6 µM (inactive) | 20.5 µM (inactive) | 57.5 µM (inactive) |  |  | 30.1 µM (inactive) | 36.1 µM (inactive)
6 | CC(=O)Oc1ccc2cc(Oc3ccc(Cl)c(Cl)c3)c(=O)oc2c1 | 35.3 µM (inactive) | 33 µM (inactive) | 25.9 µM (inactive) | 25.2 µM (inactive) |  |  | 38.1 µM (inactive) | 25.8 µM (inactive) | 24 µM (inactive) |  | 32 µM (inactive) | 27.9 µM (inactive) | 20.4 µM (inactive) | 25.4 µM (inactive) | 17.9 µM (inactive) | 20.3 µM (inactive) | 19.5 µM (inactive) | 18.3 µM (inactive) | 60.5 µM (inactive) | 
7 | O=c1[nH]c(=O)n(Cc2ccccc2CO)cc1Sc1ccccc1 | 25.4 µM (inactive) | 23.1 µM (inactive) |  | 32.8 µM (inactive) | 42.4 µM (inactive) | 26.8 µM (inactive) | 30 µM (inactive) | 26.5 µM (inactive) | 49.7 µM (inactive) | 31.3 µM (inactive) | 17.7 µM (inactive) | 35.7 µM (inactive) |  | 6.78 µM (inactive) | 30.7 µM (inactive) | 13.5 µM (inactive) | 15.7 µM (inactive) | 28.7 µM (inactive) | 74.8 µM (inactive) | 20 µM (inactive)
8 | COc1ccc(CCCCl)c(C2=NCCc3cc(OC)c(OC)cc32)c1 | > 100 µM (inactive) | 32.7 µM (inactive) |  | 91.2 µM (inactive) | > 100 µM (inactive) | 46.8 µM (inactive) | 48.5 µM (inactive) | 68.1 µM (inactive) | 37.8 µM (inactive) | 32.8 µM (inactive) | 25.6 µM (inactive) | 30 µM (inactive) | 6.87 µM (inactive) | 28.3 µM (inactive) | > 100 µM (inactive) | 39.7 µM (inactive) | 48.4 µM (inactive) | 92.5 µM (inactive) | 27.5 µM (inactive) | 35.6 µM (inactive)
9 | CCc1cccc(C(C)CC)c1NC(=O)C(=O)C(CC(=O)Nc1ccc(Cl)c(Cl)c1)C(=O)OC (stereo unspecified) | 66.1 µM (inactive) |  |  | 71.1 µM (inactive) | > 100 µM (inactive) |  | 30.4 µM (inactive) | 9.71 µM (inactive) | > 100 µM (inactive) | 3.59 µM (inactive) | > 100 µM (inactive) | > 100 µM (inactive) | 43.4 µM (inactive) | 9.79 µM (inactive) | > 100 µM (inactive) | 19.5 µM (inactive) | 93.3 µM (inactive) | > 100 µM (inactive) | > 100 µM (inactive) | 
10 | O=C(NNC(=S)NC1CCCCC1)c1csc(NC(=S)NC2CCCCC2)n1 | 5.4 µM (inactive) |  |  | 12.4 µM (inactive) | 11.7 µM (inactive) | 2.74 µM (inactive) | 5.87 µM (inactive) | 3.54 µM (inactive) |  | 4.45 µM (inactive) | 2.25 µM (inactive) | 12 µM (inactive) | 9.86 µM (inactive) |  | 6.38 µM (inactive) | 7.23 µM (inactive) | 3.12 µM (inactive) | 5.73 µM (inactive) | > 100 µM (inactive) | 10.8 µM (inactive)
11 | O=C1/C(=C/c2ccccc2)CN(C(=O)Oc2ccc([N+](=O)[O-])cc2)C/C1=C\c1ccccc1 | 2.1 µM (inactive) |  |  | > 10 µM (inactive) | > 10 µM (inactive) |  | 1.33 µM (inactive) | 6.65 µM (inactive) | 6.03 µM (inactive) | 2.41 µM (inactive) | 1.12 µM (active) | 6.65 µM (inactive) | 0.0551 µM (active) | 0.859 µM (active) | > 10 µM (inactive) | > 10 µM (inactive) | 2.74 µM (inactive) | 1.38 µM (inactive) | 1.04 µM (active) | 
12 | O=[N+]([O-])c1ccc(-c2ccc(/C=N/n3c(S)nnc3-c3ccc(Cl)cc3)o2)cc1 | 22.3 µM (inactive) |  |  | 17.5 µM (inactive) | > 40.7 µM (inactive) |  | 24.1 µM (inactive) | 26 µM (inactive) | 21.5 µM (inactive) | 27.4 µM (inactive) | > 50 µM (inactive) | 23 µM (inactive) | 16.6 µM (inactive) | 19.2 µM (inactive) | 31 µM (inactive) | > 39 µM (inactive) | > 72.4 µM (inactive) | 37.2 µM (inactive) | 51.2 µM (inactive) | 
13 | O=C(CSCC(=O)N/N=C\c1cc(Cl)cc(Cl)c1O)N/N=C\c1cc(Cl)cc(Cl)c1O | 1.77 µM (inactive) | 2.08 µM (inactive) |  | 5.69 µM (inactive) | 8.55 µM (inactive) | 2.96 µM (inactive) | 6.53 µM (inactive) | 0.204 µM (active) | 14.9 µM (inactive) | 3.64 µM (inactive) | 2.1 µM (inactive) | 16.7 µM (inactive) |  | 2.37 µM (inactive) | 3.63 µM (inactive) | 3.48 µM (inactive) |  | 0.294 µM (active) | 2.75 µM (inactive) | 8.04 µM (inactive)
14 | Cc1oncc1/N=C1\C=C(O)C(=O)c2ccccc21 | 4.88 µM (inactive) | 9.12 µM (inactive) |  | 17.4 µM (inactive) | 15.7 µM (inactive) | 3.85 µM (inactive) | 7.66 µM (inactive) | 4.82 µM (inactive) | 3.91 µM (inactive) | 2.99 µM (inactive) | 2.53 µM (inactive) | 16.3 µM (inactive) | 7.64 µM (inactive) | 6.14 µM (inactive) | 25.1 µM (inactive) | 9.18 µM (inactive) | 16.8 µM (inactive) | 3.38 µM (inactive) | 2.26 µM (inactive) | 1.92 µM (inactive)
15 | CNC(=O)N(CCC#N)[C@H]1CCCC[C@@H]1N(C(=O)NC)c1ccccc1 | > 100 µM (inactive) |  | > 100 µM (inactive) | > 100 µM (inactive) | > 100 µM (inactive) | > 100 µM (inactive) | > 100 µM (inactive) | > 100 µM (inactive) | > 100 µM (inactive) | > 100 µM (inactive) | > 100 µM (inactive) | > 100 µM (inactive) | > 100 µM (inactive) | > 100 µM (inactive) | > 100 µM (inactive) | > 100 µM (inactive) | > 100 µM (inactive) | > 100 µM (inactive) |  | > 100 µM (inactive)
16 | CC(C)(C)n1c(=O)[nH]c(=O)n1C(C)(C)C | > 100 µM (inactive) | > 100 µM (inactive) | > 100 µM (inactive) | > 100 µM (inactive) | > 100 µM (inactive) | > 100 µM (inactive) | > 100 µM (inactive) | > 100 µM (inactive) | > 100 µM (inactive) | > 100 µM (inactive) | > 100 µM (inactive) | > 100 µM (inactive) |  | > 100 µM (inactive) | > 100 µM (inactive) | > 100 µM (inactive) | > 100 µM (inactive) | > 100 µM (inactive) | > 100 µM (inactive) | 

From ChEMBL document CHEMBL1201862, “PubChem BioAssay data set” (2004)
